# Reference: patent US4888431A, “Process for the preparation of substituted fused tetrahydrocarbazole acetic acid derivatives” (American Home Products Corporation, priority 1989, dated 1989)
# Key:
# Male Swiss albino mice = experiment: Drug Effects on Phenylbenzoquinone-induced Writhing in Mice; type: in vivo; settings: 10 mg/kg, p.o., PBQ i.p. 60 minutes after dosing, writhes counted over 15 minutes
# Protocol: A further test used to determine the utility of the compounds of the present invention is designated: Drug Effects on Phenylbenzoquinone-induced Writhing in Mice
# The objective of this test is to determine the ability of test drugs to inhibit the nociceptive (pain) response of mice injected with a chemical irritant. This test is a primary screen for both peripheral and centrally acting analgesic drugs.
# Male Swiss albino mice (15-25 g) are used. The animals are fasted for 18 hours prior to use but have free access to water.
# Drugs are dissolved or suspended according to their solubility in 0.5% Tween 80 in distilled water. They are administered by gastric gavage in a volume of 5 mL/kg. For primary screening all drugs are administered at the arbitary dosage of 25 mg/kg, p.o. to a group of 10 mice.
# A modification of the method of Siegmund et al, Proc. Soc. Exp. Biol. Med., 95, 729-731 (1957) is used. Groups of 5 mice are dosed with the test compound or vehicle control. Sixty minutes later the animals are injected i.p. with 0.3 mL/20 g body weight of a 0.02% solution of phenylbenzoquinone (PBQ; 2-phenyl-1,4-benzoquinone) and placed in individual observation boxes. The number of writhing or abdominal squirming movements made by each mouse during the following 15 minute period is counted. The experiment is repeated with another group of 5 mice and the mean number of writhes per mouse for a group of 10 mice is calculated.
# Drug treated and vehicle-treated control groups are compared and the percentage inhibition of writhing conferred by the drug is calculated: [formula] where c=mean number of writhes in the control group where t=mean number of writhes in the test drug group
# Male Sprague Dawley rats = experiment: Preventative Adjuvant Edema (acute anti-inflammatory effect, hind paw edema volume); type: in vivo; settings: 25 mg/kg, p.o., edema volume day 0 to day 3
# Protocol: This test is a primary screen for anti-inflammatory drugs.
# Male Sprague Dawley rats (180-200 g) are used. The animals have free access to water but food is withdrawn 18 hours before testing.
# Freund's complete adjuvant is prepared by suspending 5 mg of killed and dried Mycobacterium butyricum (Difco) in 1 ml liquid paraffin. The test compounds are dissolved in distilled water or suspended in 0.5% Tween 80 in distilled water according to their solubility. For primary screening all drugs are administered by gastric lavage at the arbitrary dosage of 25 mg/kg, p.o. in a volume of 0.5 mL/100 g body weight to groups of 10 animals.
# The method is essentially that described by Wax et al, J. Pharmacol. Exp. Ther., 192, 166-171 (1975). Groups of rats are injected intradermally in the left hind paw with 0.1 mL of Freund's complete adjuvant. The test compound or vehicle is administered immediately before the adjuvant, 24 hours and 48 hours after the adjuvant (days 0, 1 and 2). The injected hind paw volume is measured before the injection of adjuvant and 24 hours after the last drug administration (day 3) by means of a plethysmometer (Buxco Electronics Inc.). The difference between the hind paw volume on day 0 and day 3 represents the edema volume. Etodolac (25 mg/kg, p.o.) is included as a positive control.
# The mean edema volume (expressed as mL ±SEM) is calculated for each group and the percentage inhibition of inflammation conferred by the drug is calculated: [formula] where c is the mean edema volume for the untreated controls and t is the mean edema volume for the drug treated group.
smiles,measurement,setting,value
"Cc1c(Cl)ccc2c3c([nH]c12)[C@]1(CC(=O)O)CC[C@@H]1CC3Cc1ccccc1 (relative stereo) [Example 1, cis-7-Chloro-1,2,2a,3,4,9-hexahydro-8-methyl-4-(phenylmethyl)-9bH-cyclobuta[a]carbazole-9b-acetic Acid]",inhibition (Phenylbenzoquinone Writhing in Mice),Male Swiss albino mice,73%
same,inhibition (Preventative Adjuvant Edema),Male Sprague Dawley rats,26%
"Cc1c(Cl)ccc2c3c([nH]c12)[C@@]1(CC(=O)O)CC[C@H]1CC3 (relative stereo) [Example 2, cis-7-Chloro-1,2,2a,3,4,9-hexahydro-8-methyl-9bH-cyclobuta[a]carbazole-9b-acetic Acid]",inhibition (Phenylbenzoquinone Writhing in Mice),Male Swiss albino mice,56%
same,inhibition (Preventative Adjuvant Edema),Male Sprague Dawley rats,85%
"O=C(O)C[C@]12CC[C@H]1CCc1c2[nH]c2ccccc12 (relative stereo) [Example 4, cis-1,2,2a,3,4,9-Hexahydro-9bH-cyclobuta[a]carbazole-9b-acetic Acid]",inhibition (Phenylbenzoquinone Writhing in Mice),Male Swiss albino mice,21%
same,inhibition (Preventative Adjuvant Edema),Male Sprague Dawley rats,64%
"CCCc1cc(C(C)=O)cc2c3c([nH]c12)[C@@]1(CC(=O)O)CC[C@H]1CC3 (relative stereo) [Example 5, cis-6-Acetyl-1,2,2a,3,4,9-hexahydro-8-propyl-9bH-cyclobuta[a]carbazole-9b-acetic Acid]",inhibition (Phenylbenzoquinone Writhing in Mice),Male Swiss albino mice,56%
"CCc1cccc2c3c([nH]c12)[C@]1(CC(=O)O)C[C@@H]1CC3 (relative stereo) [Example 6, (1a. α,8b. α)-7-Ethyl-1,1a,2,3,8,8b-hexahydrocyclopropa[a]carbazole-8b-acetic Acid]",inhibition (Phenylbenzoquinone Writhing in Mice),Male Swiss albino mice,27%
same,inhibition (Preventative Adjuvant Edema),Male Sprague Dawley rats,13%
"O=C(O)C[C@@]12CC[C@@H]1CC(Cc1ccccc1)c1c2[nH]c2ccccc12 (relative stereo) [Example 7, cis-1,2,2a,3,4,9-Hexahydro-4-(phenylmethyl)-9bH-cyclobuta[a]carbazole-9b-acetic Acid]",inhibition (Phenylbenzoquinone Writhing in Mice),Male Swiss albino mice,0%
